Measured values: article PMC3125149, “SCYX-7158, an Orally-Active Benzoxaborole for the Treatment of Stage 2 Human African Trypanosomiasis” (PLoS Neglected Tropical Diseases, 2011)
In brackets after ≈: the same amount, converted by molar mass.

Tests used:
[1] = tested on: T. b. gambiense 40R; assay: In vitro compound sensitivity assay (resazurin viability); assay type: cell-based; settings: Trypanosoma brucei, 72 h
Procedure: (§1) T. b. brucei was cultured in complete HMI-9 medium,[20] which contains 10% fetal bovine serum (FBS) (Invitrogen, Carlsbad, CA), 10% Serum Plus medium (SAFC Biosciences, Lenexa, KS), and 100 units/mL penicillin and 0.1 mg/mL streptomycin. The trypanosomes were propagated in T-25 vented cap flasks (Corning Inc., Lowell, MA) at 37°C and 5% CO2 with humidity. To ensure log growth phase, trypanosomes were sub-cultured at appropriate dilutions (typically 1∶100) every 2–3 days in fresh HMI-9 medium. T. b. rhodesiense parasites were grown in MEM medium with Earle's salts supplemented with 15% horse serum. For T. b. gambiense, the MEM medium was supplemented with 5% heat-inactivated fetal calf serum (FCS) and 15% human serum.[21] L929 mouse fibroblast cells (ATCC CCL1, American Type Culture Collection, Rockville, MD) were used to determine parasite versus mammalian cell selectivity. Cells were cultured in Dulbecco's Modified Eagle Medium (DMEM), supplemented with 10% FBS, L-glutamine and 100 units/mL penicillin and 0.1 mg/mL streptomycin. MDCKII-hMDR1 cells were generously provided by P. Borst at the Netherlands Kancer Institute. Cells were cultured in DMEM with Glutamax, 10% (v/v) FBS, and 100 units/mL penicillin and 0.1 mg/mL streptomycin. Cell monolayers were fed with cell culture media 24 h after seeding and used for permeability studies 3 days later.
(§2) Compounds to be tested were serially diluted in DMSO and added to 96-well plates to give final concentrations ranging from 5 to 0.01 µg/mL. T. b. brucei parasites in the log phase of growth were diluted in HMI-9 media and added to each well for a final concentration of 1×10^4 parasites per well. For the sensitivity assays using T. b. rhodesiense and T. b. gambiense, pararasites were cultured in MEM supplemented with Baltz components (8), diluted in the aforementioned culture media, and added to each well at a density of 1×10^3 cells/well. The final concentration of DMSO was 0.5% and the total volume was 100 µL/well. After a 72 h incubation, resazurin (Sigma-Aldrich, St. Louis, MO) was added to each well [20 µL of 25 mg/100 mL stock in phosphate buffered saline (PBS)] and incubated for an additional 4–6 h.[22] To assess cell viability, fluorescence was quantified using an EnVision Multilabel Plate Reader (Perkin Elmer, Waltham, MA) at an excitation wavelength of 530 nm and emission of 590 nm. Triplicate data points were averaged to generate sigmoidal dose-response curves and determine IC50 values using XLfit curve fitting software from IDBS (Guilford, UK). The IC50 is defined as the amount of compound required to decrease parasite or cell viability by 50% compared to those grown in the absence of the test compound. […]

[2] = tested on: T. b. gambiense Drani; assay: as above; assay type: cell-based; settings: Trypanosoma brucei, 72 h incubation, n = 1
Procedure: as §1, §2

[3] = tested on: T. b. gambiense ITMAP 141267; assay: as above; assay type: cell-based; settings: Trypanosoma brucei, 72 h incubation, n = 1
Procedure: as §1, §2

[4] = tested on: T. b. gambiense DAL 1402; assay: as above; assay type: cell-based; settings: Trypanosoma brucei, 72 h incubation, n = 1
Procedure: as §1, §2

[5] = biological target: T1, CYP2C9 (Homo sapiens, UniProt P11712); assay: P450-Glo cytochrome P450 inhibition; assay type: biochemical; settings: human recombinant CYP2C9
T1 construct: purchased Promega Inc., Madison, WI
Procedure: (§3) The potential for compound to exert drug-drug interactions that are mediated through inhibition of cytochrome P450 activities was assessed using P450-Glo assay kits (Promega Inc., Madison, WI). Assays for human cytochrome P450 isoforms 3A4, 1A2, 2C9, 2C19, and 2D6 were performed in triplicate according to the manufacturer's instructions over the concentration range 1–100 µM (n = 6 levels). Briefly, SCYX-7158 was added to membrane preparations containing human recombinant CYP450 enzymes together with luminogenic substrates specific to each isoform. Specific CYP450 inhibitors were included as positive controls (ketoconazole, CYP3A4; alpha-napthoflavone, 1A2; sulfaphenazole, CYP2C9; troglitazone, 2C19, and quinidine, CYP2D6). Reactions were initiated by addition of NADPH-regenerating solution and were allowed to incubate for an additional 15–30 min (isoform dependent). Luciferin detection reagent, containing the luciferin-labeled probe substrate, was then added. Luminescence was recorded on an EnVision Multilabel Plate Reader. Calculation of IC50 concentrations for each enzyme was determined using GraphPad Prism (V5.01).

[6] = biological target: T2, CYP2C19 (Homo sapiens, UniProt P33261); assay: P450-Glo cytochrome P450 inhibition; assay type: biochemical; settings: human recombinant CYP2C19
T2 construct: purchased Promega Inc., Madison, WI
Procedure: as §3

[7] = biological target: T3, CYP2D6 (Homo sapiens, UniProt P10635); assay: P450-Glo cytochrome P450 inhibition; assay type: biochemical; settings: human recombinant CYP2D6
T3 construct: purchased Promega Inc., Madison, WI
Procedure: as §3

[8] = biological target: T4, CYP1A2 (Homo sapiens, UniProt P05177); assay: P450-Glo cytochrome P450 inhibition; assay type: biochemical; settings: human recombinant CYP1A2
T4 construct: purchased Promega Inc., Madison, WI
Procedure: as §3

[9] = biological target: T5, CYP3A4 (Homo sapiens, UniProt P08684); assay: P450-Glo cytochrome P450 inhibition; assay type: biochemical; settings: human recombinant CYP3A4
T5 construct: purchased Promega Inc., Madison, WI
Procedure: as §3

[10] = tested on: T. b. brucei, T. b. rhodesiense and T. b. gambiense strains; assay: Whole cell assays across representative strains (text summary of Table 1); assay type: cell-based; settings: Trypanosoma brucei; 72 h incubation; range over strains of Table 1; read-out: IC50 values across parasite strains
Procedure: as §2

[11] = tested on: T. b. brucei 427; assay: Reversibility of trypanocidal effects (wash-out); assay type: cell-based; settings: at about 5 times the IC50
Procedure: To establish the time and concentration required to cause persistent or irreversible effects by oxaboroles, T. b. brucei parasites were assessed for their ability to recover from transient exposure to test compounds. Trypanosomes were seeded in clear 96-well V-bottom plates at a density of 1×10^5 parasites per well and incubated with serially diluted test compound (from 10 to 0.02 µg/mL). One plate was prepared for each time point. At the designated time, a plate was removed from the incubator and spun at 2,600 g for 5 min to sediment the parasites. The supernatant was aspirated and 100 µL of warmed HMI-9 media was added to each well. The wash was repeated twice more. The parasites were resuspended in 100 µL of warmed media and 20 µL of this suspension was added to 80 µL of HMI-9 media in triplicate plates. Following a 72 h incubation, resazurin was added and trypanocidal activity determined as described for the in vitro sensitivity assay.

[12] = tested on: T. b. brucei; assay: Effect of serum on trypanocidal activity; assay type: cell-based; settings: 25% mouse serum or 50% bovine serum
Procedure: as §2

T4 sequence (P05177 whole entry): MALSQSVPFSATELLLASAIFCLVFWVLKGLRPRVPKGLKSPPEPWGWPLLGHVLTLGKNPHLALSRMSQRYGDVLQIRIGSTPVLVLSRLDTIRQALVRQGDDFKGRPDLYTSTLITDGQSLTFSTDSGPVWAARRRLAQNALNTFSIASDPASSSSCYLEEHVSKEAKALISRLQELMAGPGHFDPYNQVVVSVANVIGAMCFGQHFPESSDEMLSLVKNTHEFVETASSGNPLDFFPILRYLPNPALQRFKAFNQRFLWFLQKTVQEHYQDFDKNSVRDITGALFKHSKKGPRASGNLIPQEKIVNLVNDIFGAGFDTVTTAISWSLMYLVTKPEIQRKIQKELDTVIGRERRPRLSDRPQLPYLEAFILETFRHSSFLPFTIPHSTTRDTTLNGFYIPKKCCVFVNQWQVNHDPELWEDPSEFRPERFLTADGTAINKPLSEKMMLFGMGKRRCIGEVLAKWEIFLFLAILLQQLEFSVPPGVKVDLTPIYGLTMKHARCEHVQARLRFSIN
T2 sequence (P33261 whole entry): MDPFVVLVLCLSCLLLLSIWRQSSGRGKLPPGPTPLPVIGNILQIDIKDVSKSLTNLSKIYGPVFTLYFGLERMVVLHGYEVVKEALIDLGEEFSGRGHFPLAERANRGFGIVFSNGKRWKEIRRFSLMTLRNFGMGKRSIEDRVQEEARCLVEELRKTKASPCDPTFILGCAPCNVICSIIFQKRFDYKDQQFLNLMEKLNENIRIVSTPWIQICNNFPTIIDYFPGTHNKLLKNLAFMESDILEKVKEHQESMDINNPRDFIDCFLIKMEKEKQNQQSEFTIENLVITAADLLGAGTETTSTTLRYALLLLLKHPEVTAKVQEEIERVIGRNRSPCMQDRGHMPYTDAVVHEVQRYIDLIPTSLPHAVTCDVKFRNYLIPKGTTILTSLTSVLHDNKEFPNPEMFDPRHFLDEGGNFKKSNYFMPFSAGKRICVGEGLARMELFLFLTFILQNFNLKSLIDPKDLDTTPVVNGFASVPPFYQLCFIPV
T3 sequence (P10635 whole entry): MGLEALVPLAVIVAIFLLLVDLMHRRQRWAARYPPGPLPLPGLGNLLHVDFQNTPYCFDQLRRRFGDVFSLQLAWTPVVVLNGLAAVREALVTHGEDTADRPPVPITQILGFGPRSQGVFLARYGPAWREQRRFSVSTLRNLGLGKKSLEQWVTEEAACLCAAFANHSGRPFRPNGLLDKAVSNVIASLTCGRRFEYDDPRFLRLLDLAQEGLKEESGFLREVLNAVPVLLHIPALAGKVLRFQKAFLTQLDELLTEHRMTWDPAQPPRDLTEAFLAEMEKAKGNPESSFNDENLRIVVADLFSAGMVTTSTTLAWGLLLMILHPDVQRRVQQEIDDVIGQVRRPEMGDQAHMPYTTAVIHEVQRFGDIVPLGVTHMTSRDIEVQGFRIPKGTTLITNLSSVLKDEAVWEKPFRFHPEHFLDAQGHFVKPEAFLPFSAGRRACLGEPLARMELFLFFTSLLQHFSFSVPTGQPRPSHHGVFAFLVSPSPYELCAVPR
T1 sequence (P11712 whole entry): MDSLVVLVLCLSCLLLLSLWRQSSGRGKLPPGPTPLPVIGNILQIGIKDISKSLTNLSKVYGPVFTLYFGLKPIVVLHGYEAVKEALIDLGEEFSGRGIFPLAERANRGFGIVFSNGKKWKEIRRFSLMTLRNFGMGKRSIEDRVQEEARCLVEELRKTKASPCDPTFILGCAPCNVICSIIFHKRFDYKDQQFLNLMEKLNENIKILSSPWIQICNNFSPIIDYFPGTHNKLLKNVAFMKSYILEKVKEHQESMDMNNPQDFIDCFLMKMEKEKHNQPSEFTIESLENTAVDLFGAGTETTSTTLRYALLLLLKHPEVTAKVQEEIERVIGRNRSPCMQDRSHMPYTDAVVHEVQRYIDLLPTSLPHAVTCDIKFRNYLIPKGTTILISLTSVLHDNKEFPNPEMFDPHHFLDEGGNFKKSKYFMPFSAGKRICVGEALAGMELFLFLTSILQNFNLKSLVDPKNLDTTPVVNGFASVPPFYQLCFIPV
T5 sequence (P08684 whole entry): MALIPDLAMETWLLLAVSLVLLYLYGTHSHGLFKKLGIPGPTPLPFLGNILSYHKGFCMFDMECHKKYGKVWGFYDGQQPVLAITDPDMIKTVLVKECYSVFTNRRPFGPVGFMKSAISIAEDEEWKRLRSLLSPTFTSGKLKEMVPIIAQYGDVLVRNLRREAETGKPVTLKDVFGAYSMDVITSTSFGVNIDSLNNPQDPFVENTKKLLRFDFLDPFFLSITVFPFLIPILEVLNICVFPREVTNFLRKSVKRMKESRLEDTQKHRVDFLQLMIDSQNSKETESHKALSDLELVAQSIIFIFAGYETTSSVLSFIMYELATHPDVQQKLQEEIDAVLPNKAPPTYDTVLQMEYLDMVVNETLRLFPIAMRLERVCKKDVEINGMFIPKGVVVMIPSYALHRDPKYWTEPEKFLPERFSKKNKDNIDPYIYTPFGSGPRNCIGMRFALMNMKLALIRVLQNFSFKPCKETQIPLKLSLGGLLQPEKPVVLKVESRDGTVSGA

Question: Which IC50 [1] does the source give for `CC1(C)OB(O)c2cc(NC(=O)c3ccc(F)cc3C(F)(F)F)ccc21` [SCYX-7158] here?
Answer: The IC50 was 0.363 µg/mL (≈ 0.989 µM).

Question: And the IC50 [2]?
Answer: Its IC50 is 0.129 µg/mL (≈ 0.351 µM).

Question: And the IC50 [3]?
Answer: The IC50 was 0.092 µg/mL (≈ 0.251 µM).

Question: What about the IC50 [4] of the same molecule?
Answer: The IC50 was 0.065 µg/mL (≈ 0.177 µM).

Question: What about the IC50 [5] of the same molecule?
Answer: Its IC50 is 23.5 µM.

Question: And the IC50 [6]?
Answer: The IC50 was 23.1 µM.

Question: And the IC50 [7]?
Answer: Its IC50 is 21.1 µM.

Question: What about the IC50 [8] of the same molecule?
Answer: Its IC50 is over 100 µM.

Question: And the IC50 [9]?
Answer: Its IC50 is 47.4 µM.

Question: And the IC50 [10]?
Answer: Its IC50 is 0.07 to 0.37 µg/mL (≈ 0.191 to 1.01 µM).

Question: What about the “exposure time sufficient to produce irreversible effects on trypanosome survival” value [11] of the same molecule?
Answer: The value was 10 to 12 h.

Question: And the “attenuation of in vitro IC50” value [12]?
Answer: The value was 3–4 fold.
